Literature values as cited in patent US20060211766A1, “Gelled immunomodulating topical compositions and a method of treating warts and other human papilloma virus skin infections” (priority 2004, published 2006).

Tested on: rodents
Conditions: in rodents

CC(C)=O [Acetone]
LD/50: 10.7 mg per kilogram
